Data reported in EP0882016B1, “ALKYLATED STYRENES AS PRODRUGS TO COX-2 INHIBITORS” (Merck Frosst Canada & Co., priority 1996, dated 1997).

Tests used:
[1] = Rat plasma levels, per os pharmacokinetics in rats; type: in vivo, Male Sprague Dawley rats; conditions: maximum rat plasma concentration of the active COX-2 inhibitor (corresponding carbonyl compound) after 20 mg/kg oral dose of the indicated prodrug
Text: The animals are housed, fed and cared for according to the Guidelines of the Canadian Council on Animal Care.
Male Sprague Dawley rats (325-375 g) are fasted overnight prior to each PO blood level study.
The rats are placed in the restrainer one at a time and the box is firmly secured. The zero blood sample is obtained by nicking a small (1 mm or less) piece off the tip of the tail. The tail is then stroked with a firm but gentle motion from the top to the bottom to milk out the blood. Approximately 1 mL of blood is collected into a heparinized vacutainer tube.
Compounds are prepared as required, in a standard dosing volume of 10mL/kg, and administered orally by passing a 16 gauge, 3" gavaging needle into the stomach.
Subsequent bleeds are taken in the same manner as the zero bleed except that there is no need to nick the tail again. The tail is cleaned with a piece of gauze and milked/stroked as described above into the appropriately labelled tubes.
Immediately after sampling, blood is centrifuged, separated, put into clearly marked vials and stored in a freezer until analysed.
Typical time points for determination of rat blood levels after PO dosing are: 0, 15min, 30min, 1h, 2h, 4h, 6h
After the 4hr time point bleed, food is provided to the rats ad libitum. Water is provided at all times during the study.
The following vehicles may be used in PO rat blood level determinations:
Compounds for PO blood levels can be in suspension form. For better dissolution, the solution can be placed in a sonicator for approximately 5 minutes.
For analysis, aliquots are diluted with an equal volume of acetonitrile and centrifuged to remove protein precipitate. The supernatant is injected directly onto a C-18 HPLC column with UV detection. Quantitation is done relative to a clean blood sample spiked with a known quantity of drug. Bioavailability (F) is assessed by comparing area under the curve (AUC) i.v. versus p.o. F =(AUCpo)/(AUCiv)x(DOSEiv)/(DOSEpo)x 100% [formula] […]

Rat Paw Edema = experiment: Rat paw edema assay (carrageenan); type: in vivo, Male Sprague-Dawley rats; conditions: dose of prodrug, po, required to reduce edema formation by 50% as compared to the vehicle control
Description: Male Sprague-Dawley rats (150-200 g) are fasted overnight and are given, po, either vehicle (1% methocel or 5% Tween 80) or a test compound. One hr later, a line is drawn using a permanent marker at the level above the ankle in one hind paw to define the area of the paw to be monitored. The paw volume (V0) is measured using a plethysmometer (Ugo-Basile, Italy) based on the principle of water displacement. The animals are then injected subplantarly with 50 µl of 1% carrageenan solution in saline (FMC Corp, Maine) into the paw using an insulin syringe with a 25-gauge needle (i.e. 500 µg carrageenan per paw). Three hr later, the paw volume (V3) is measured and the increases in paw volume (V3 - VO) are calculated. The animals are sacrificed by CO2 asphyxiation and the absence or presence of stomach lesions scored. Data is compared with the vehicle-control values and percent inhibition calculated. All treatment groups are coded to eliminate observer bias.
Compounds of the present invention are prodrugs of inhibitors of COX-2 and are thereby useful in the treatment of COX-2 mediated diseases as enumerated above. The extent of conversion of these compounds to the active COX-2 inhibitors may be seen in the representative results shown in Table III along with their antiinflammatory activity. The plasma levels indicated are the maximum rat plasma concentrations of the active COX-2 inhibitor observed when the rat was treated with a 20 mg/kg oral dose of the indicated prodrug. The ED50 values in the rat paw edema assay represent the dose of prodrug required to reduce edema formation by 50% as compared to the vehicle control.

SMILES: CC(C)(O)/C(=C(\CO)c1cccc(F)c1)c1ccc(S(C)(=O)=O)cc1 [Example 1, 2-(3-Fluorophenyl)-4-methyl-3-(4-(methylsulfonyl)-phenyl)-2-(Z)-penten-1,4-diol]
- Plasma Levels (µM)* [1]: 3.5 µM
- Rat Paw Edema (ED50, mg/kg) (Rat Paw Edema): 10 mg/kg

SMILES: COC(C)(C)/C(=C(\C(=O)N(C)C)c1cccc(F)c1)c1ccc(S(C)(=O)=O)cc1 [Example 4, N,N-Dimethyl-2-(3-fluorophenyl)-4-methoxy-4-methyl-3-(4-(methylsulfonyl)phenyl)-2-(Z)-pentenamide]
- Plasma Levels (µM)* [1]: 10 µM
- Rat Paw Edema (ED50, mg/kg) (Rat Paw Edema): 1.6 mg/kg

SMILES: COC(=O)/C(=C(/c1ccc(S(C)(=O)=O)cc1)C(C)(C)OC)c1cccc(F)c1 [Example 6, Methyl 2-(3-fluorophenyl)-4-methoxy-4-methyl-3-(4-(methylsulfonyl)phenyl)-2-(Z)-pentenoate]
- Plasma Levels (µM)* [1]: 6 µM
- Rat Paw Edema (ED50, mg/kg) (Rat Paw Edema): 2.1 mg/kg
